Experimental data taken from article PMC7250802, “Initial Evaluation of AF78: a Rationally Designed Fluorine-18-Labelled PET Radiotracer Targeting Norepinephrine Transporter” (Molecular Imaging and Biology, 2019).

Molecular target: T1, norepinephrine transporter (NET) (Homo sapiens, UniProt P23975)
T1 construct: gene SLC6A2
Test: competitive inhibition of […]AF78 uptake in SK-N-SH cells ([…] against […]MIBG)
Type: cell-based

T1 sequence (P23975 whole entry): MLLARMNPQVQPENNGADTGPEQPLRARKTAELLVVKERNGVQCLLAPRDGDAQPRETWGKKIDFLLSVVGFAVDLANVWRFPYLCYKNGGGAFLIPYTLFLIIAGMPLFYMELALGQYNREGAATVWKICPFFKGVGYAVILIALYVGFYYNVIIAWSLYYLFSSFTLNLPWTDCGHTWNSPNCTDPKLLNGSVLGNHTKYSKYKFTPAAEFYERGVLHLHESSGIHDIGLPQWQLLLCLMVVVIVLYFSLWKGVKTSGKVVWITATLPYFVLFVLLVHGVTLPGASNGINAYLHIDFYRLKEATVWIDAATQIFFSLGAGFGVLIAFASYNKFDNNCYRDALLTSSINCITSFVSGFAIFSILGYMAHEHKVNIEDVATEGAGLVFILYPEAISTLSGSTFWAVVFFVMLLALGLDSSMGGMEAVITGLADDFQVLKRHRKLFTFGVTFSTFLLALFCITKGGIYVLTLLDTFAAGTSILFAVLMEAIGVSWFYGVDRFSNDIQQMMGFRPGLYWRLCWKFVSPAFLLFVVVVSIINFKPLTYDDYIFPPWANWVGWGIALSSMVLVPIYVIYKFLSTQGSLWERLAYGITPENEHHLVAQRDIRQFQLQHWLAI

**Q.** Which IC50 does the source give for N=C(N)NCCc1ccc(F)c(O)c1 [4F-MHPG, 4-[^18F]fluoro-3-hydroxyphenethylguanidine] here?
**A.** 850 ± 630 nM
